Entries after “also recorded” stand apart in the source; their conditions may differ.
Tests used:
ONS-76 cells = assay: CD15+ tumor propagating cell population by FACS; assay type: cell-based; settings: 5.0 μM, 48 hours, vs control
Protocol: The tumor propagating cell population in ONS-76 cells was identified based on CD15+ staining by fluorescence-activated cell sorting (FACS) analysis. […] Then, cells were trypsinized and 1×10^6 cells stained with a 5 μL aliquot of APC-CD15 antibody (BioLegend; 301,908) and analyzed with flow cytometry (BD, LSR Fortessa).

[1] = tested on: MB cells (DAOY and HD-MB03); assay: Colony formation (clonogenic) assay; assay type: cell-based, human; settings: 48 hours treatment, 14-day incubation, both cell lines
Protocol: Approximately 500 MB cells were seeded overnight in 6 well plates and treated with MDP5 at IC50 for the colony formation assay. After 48 hours of incubation, the media was replaced by fresh media and allowed cells to grow for 2 weeks. Then, cells were fixed into 10% formalin and stained with a 0.5% solution of crystal violet dye in 20% methanol. After taking pictures, the colonies were dissolved in 10% acetic acid solution to measure the optical density.
Colony formation ability, cell cycle analysis, and cell apoptosis assay were performed in MB cells in presence of drugs as described (Kumar et al. (2021) Biomaterials 278:121138). For the colony formation assay, after taking images, the colonies were dissolved in 10% acetic acid solution to measure the optical density (OD).

BRD2-BD2 = biological target: T1, BRD2-BD2 (Homo sapiens, UniProt P25440); assay: Protein Thermal Shift (PTS) assay on BRD2-BD2; assay type: binding; settings: 100 μM ligand, 20 μM BD protein; positive = Tm increase
T1 construct: polyhistidine (N, cleaved yes); made in house; host or cells: E. coli (T7 express)
T1 sequence (P25440 344-453 limits assumed): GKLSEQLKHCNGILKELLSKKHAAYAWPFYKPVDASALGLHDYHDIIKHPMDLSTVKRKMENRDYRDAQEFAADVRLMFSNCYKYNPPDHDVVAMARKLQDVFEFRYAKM
Protocol: The genes encoding human BRD2-BD1, BRD2-BD2, and BRD4-BD2 were codon-optimized for expression in E. coli. […] The sequence-confirmed plasmids were used to transform T7 express E coli. Large-scale cell cultures were grown in LB media containing […] carbenicillin and incubated with shaking at 37° C. until the OD600 nm reached 0.6. Then cultures were cooled to 16° C., and 1 mM isopropyl β-D-1-thiogalactopyranoside was added to induce the protein expression. After 20 hours of incubation, cells were harvested. The resulting cell pellet was resuspended in a lysis buffer containing 50 mM Tris pH 7.5, 200 mM NaCl, 0.5 mM imidazole, and 0.3 mM tris(2-carboxyethyl) phosphine (TECP). After the addition of DNase I and lysozyme, the cell suspension was incubated on ice for 30 minutes and lysed by sonication. The lysate was clarified by centrifugation at 12,000 rpm for 45 minutes. […]
Each reaction used 20 μM concentration of recombinant BD protein in a 50 mM Tris pH 7.5 buffer containing 100 mM NaCl, 0.3 mM tris(2-carboxyethyl) phosphine HCl, and 1% dimethyl sulfoxide. […] Evaluation of the derivative of the fluorescence signal employed the Applied Bioscience Protein Thermal Shift Software version 1.3 to determine the average melting temperature (Tm) for each sample and the standard deviation(s) of those Tm values.

MB cells = assay: RT-qPCR of target genes; assay type: cell-based, human; settings: RT-PCR
Protocol: Whole RNAs in cells after treatments were extracted using an RNA extraction kit (RNAeasy, Qiagen) to detect mRNA expression. cDNA templates were synthesized by reverse transcribing the RNA using a High-Capacity RNA-to-cDNA™ Kit (Thermo Fisher). The final RT-qPCR reaction mixture was used consisting of a total volume 10 μl containing […] SYBR Green master mix, 0.5 μl of each primer (10 μM) (Table 1), 2 μl of the cDNA template, and 3.5 μl RNase-free H2O. The relative expression level of the targeted gene was measured with Lightcycler 480 (Roche). The gene expression levels were calculated according to the 2^−ΔΔCq method using β-actin as the internal reference gene. Each assay was repeated≥3 times.

O=c1cc(N2CCOCC2)oc2c(-c3ccc4c(c3)OCCO4)cccc12 [MDP5, 8-(2,3-dihydrobenzo [b][1,4]dioxin-6-yl)-2-morpholino-4H-chromen-4-one]
percentage of CD15+ cell population (ONS-76 cells): declined as compared to control cells | colony formation [1]: significant decrease in colony formation potential; also recorded: lower number of colonies in both cell lines; also recorded: significantly decreased the colony formation capacity | change in BRD2-BD2 melting temperature (Tm) (BRD2-BD2): 2.4 °C | BCL2 mRNA expression (MB cells; MB cells): significantly reduced | cyclin D1 gene expression (MB cells; vs control): decreased significantly

O=c1cc(N2CCOCC2)oc2c(-c3ccc4c(c3)OCCO4)csc12 [SF2523, reference compound]
change in BRD2-BD2 melting temperature (Tm) (BRD2-BD2): 6.3 °C
